Here are results for ten compounds from patent EP0373994A1, “Mutants of simian transforming growth factor-beta 1” (ONCOGEN LIMITED PARTNERSHIP, priority 1988, dated 1990).

Like-named read-outs stand apart in the source and are kept apart here.

Assay [1] concerns TGF-β1 secretion by CHO cell line TGF-β3-2000 clone 17. The experiment in a line: Secretion of TGF-β1 by transfected CHO cells treated with glycosylation inhibitors (pulse-chase, densitometry). In kind it is cell-based, Chinese hamster.
Assay [2] has as its system proteolytic processing of TGF-β1 precursor in TGF-β3-2000 clone 17 CHO cells. The experiment in a line: Proteolytic processing of TGF-β1 precursor in CHO cells treated with weak bases or ionophore. In kind it is cell-based, Chinese hamster.
Assay [3] addresses T1, CHO cells overexpressing the human IGF-II/man6P receptor (Homo sapiens, UniProt P11717).
T1 construct: expressed in transfected cells; host or cells: CHO cells
The experiment in a line: Binding to CHO cells overexpressing the receptor. The method, then: Binding and internalization studies with transfected and control CHO cells were performed in 24-well culture plates. Confluent cells were washed and incubated for 5 hours at 4°C with the labeled ligand in 0.3 ml of binding buffer (100 mM Hepes, pH 7.6, 120 mM NaCl, 1.2 mM MgSO₄, 15 mM sodium acetate, 5 mM glucose). Cells were then washed twice, lysed with 0.1% sodium docecyl sulfate and counted. For the internalization studies, labeled ligand was added to the cells in serum-free Ham's F-12 medium containing 0.1% bovine serum albumin and 20 mM Hepes, pH 7.6. After the indicated periods of time at 37°C, the cells were put on ice and washed with pre-cooled Hepes buffered saline containing 0.3 mM CaCl₂. […] The cells were then washed, solubilized, and counted as above.

The target in assay [4] is human mannose 6-phosphate/IGF-II receptor (Homo sapiens, UniProt P11717). The experiment in a line: Solid phase receptor assay, binding of 125I-TGF-β1 precursor to purified receptor.
In assay [5] the target is T2, IGF-II/man6P receptor on adipocytes (Rattus norvegicus, UniProt G3V824).
T2 construct: from tissue; host or cells: primary adipocytes from epididymal fat pads of male Sprague-Dawley rats
The experiment in a line: Binding to rat adipocytes with or without insulin pretreatment. Particulars: 3mM, read-out: inhibition of TGF-β1 precursor binding. The method, then:
The epididymal fat pads from male Sprague-Dawley rats (180-220 g) were excised, minced, and collagenase-digested as described (Rodberg, 1964, J. Biol. Chem. 239:375-380). The isolated adipocytes were pre-incubated with or without 1 µM insulin for 10 min at 37°C in 0.7 ml Krebs-Ringer buffer (107 mM NaCl, 5mM KCl, 3mM CaCl₂, 1mM MgSO₄, 7 mM NaHCO₃, 10 mM glucose, and 20 mM Hepes, pH 7.8) with 3% bovine serum albumin. The indicated labeled ligand was added and the incubations continued for 45 minutes at 37°. The cells were separated from the media by centrifugation through silicon oil and the radioactivity in the cell layer counted.

One may read the inhibition as the share of the control response that was lost under treatment.

T1 sequence (P11717 41-2491): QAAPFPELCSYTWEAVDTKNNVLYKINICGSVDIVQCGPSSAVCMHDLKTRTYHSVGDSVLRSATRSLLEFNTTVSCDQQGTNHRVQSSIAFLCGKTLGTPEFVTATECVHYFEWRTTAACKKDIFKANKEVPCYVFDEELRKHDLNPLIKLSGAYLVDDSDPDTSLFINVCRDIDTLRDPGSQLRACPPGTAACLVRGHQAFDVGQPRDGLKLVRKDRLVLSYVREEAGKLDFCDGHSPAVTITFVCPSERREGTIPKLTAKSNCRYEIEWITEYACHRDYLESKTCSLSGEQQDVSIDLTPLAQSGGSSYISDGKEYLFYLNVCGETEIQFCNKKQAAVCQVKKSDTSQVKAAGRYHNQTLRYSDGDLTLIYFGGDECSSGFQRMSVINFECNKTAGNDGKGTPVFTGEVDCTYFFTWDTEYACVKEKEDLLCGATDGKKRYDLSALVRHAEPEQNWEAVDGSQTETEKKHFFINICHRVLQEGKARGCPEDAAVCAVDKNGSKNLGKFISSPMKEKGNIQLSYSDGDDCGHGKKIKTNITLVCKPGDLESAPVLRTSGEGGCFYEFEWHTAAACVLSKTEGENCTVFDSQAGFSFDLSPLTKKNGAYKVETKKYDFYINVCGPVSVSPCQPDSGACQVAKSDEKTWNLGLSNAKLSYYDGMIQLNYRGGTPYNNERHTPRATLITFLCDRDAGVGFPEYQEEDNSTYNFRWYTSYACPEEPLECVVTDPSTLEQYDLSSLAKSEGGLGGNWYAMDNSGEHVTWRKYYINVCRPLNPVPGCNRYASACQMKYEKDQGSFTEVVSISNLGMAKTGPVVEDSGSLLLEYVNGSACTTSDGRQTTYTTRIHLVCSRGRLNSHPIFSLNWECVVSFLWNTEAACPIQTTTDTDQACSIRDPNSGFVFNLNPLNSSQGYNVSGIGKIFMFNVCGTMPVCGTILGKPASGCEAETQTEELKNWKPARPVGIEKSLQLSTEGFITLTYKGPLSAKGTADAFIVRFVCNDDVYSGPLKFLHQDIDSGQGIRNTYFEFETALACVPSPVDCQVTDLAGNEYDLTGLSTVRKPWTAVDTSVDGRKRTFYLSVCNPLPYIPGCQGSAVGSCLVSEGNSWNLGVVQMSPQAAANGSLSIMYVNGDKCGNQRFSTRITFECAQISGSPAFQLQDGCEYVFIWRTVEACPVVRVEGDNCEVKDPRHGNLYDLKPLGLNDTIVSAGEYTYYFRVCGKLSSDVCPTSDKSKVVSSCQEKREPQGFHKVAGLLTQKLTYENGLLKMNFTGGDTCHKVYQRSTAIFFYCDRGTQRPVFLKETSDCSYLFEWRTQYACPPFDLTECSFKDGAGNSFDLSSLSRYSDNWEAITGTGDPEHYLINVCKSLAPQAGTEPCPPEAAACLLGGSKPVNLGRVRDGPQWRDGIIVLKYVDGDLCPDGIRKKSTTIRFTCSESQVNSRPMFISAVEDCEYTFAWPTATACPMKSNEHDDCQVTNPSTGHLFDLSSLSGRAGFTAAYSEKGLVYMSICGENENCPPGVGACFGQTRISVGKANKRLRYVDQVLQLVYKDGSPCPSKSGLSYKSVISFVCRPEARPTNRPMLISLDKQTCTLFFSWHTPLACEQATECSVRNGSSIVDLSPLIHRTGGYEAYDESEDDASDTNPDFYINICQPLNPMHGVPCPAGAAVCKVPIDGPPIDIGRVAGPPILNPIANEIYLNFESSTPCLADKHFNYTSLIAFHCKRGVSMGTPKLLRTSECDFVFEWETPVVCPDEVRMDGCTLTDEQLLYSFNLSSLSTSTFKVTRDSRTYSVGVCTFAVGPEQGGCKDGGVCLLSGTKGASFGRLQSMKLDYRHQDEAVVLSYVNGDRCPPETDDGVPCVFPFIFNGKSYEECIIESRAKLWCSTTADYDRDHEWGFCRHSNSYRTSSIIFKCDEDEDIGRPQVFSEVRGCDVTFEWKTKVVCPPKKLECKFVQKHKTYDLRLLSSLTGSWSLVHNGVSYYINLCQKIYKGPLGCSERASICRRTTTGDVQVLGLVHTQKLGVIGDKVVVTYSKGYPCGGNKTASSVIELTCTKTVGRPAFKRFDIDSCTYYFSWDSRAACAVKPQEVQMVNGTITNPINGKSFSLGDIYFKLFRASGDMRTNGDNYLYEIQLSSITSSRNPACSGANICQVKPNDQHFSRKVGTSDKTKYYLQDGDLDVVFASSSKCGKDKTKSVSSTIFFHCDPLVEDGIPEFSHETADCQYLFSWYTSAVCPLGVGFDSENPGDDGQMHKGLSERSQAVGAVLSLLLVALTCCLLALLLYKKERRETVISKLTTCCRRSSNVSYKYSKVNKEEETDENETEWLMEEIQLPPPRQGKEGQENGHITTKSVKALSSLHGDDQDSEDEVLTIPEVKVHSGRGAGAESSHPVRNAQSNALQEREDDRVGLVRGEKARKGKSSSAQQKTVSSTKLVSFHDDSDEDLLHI
T2 sequence (G3V824 36-2481): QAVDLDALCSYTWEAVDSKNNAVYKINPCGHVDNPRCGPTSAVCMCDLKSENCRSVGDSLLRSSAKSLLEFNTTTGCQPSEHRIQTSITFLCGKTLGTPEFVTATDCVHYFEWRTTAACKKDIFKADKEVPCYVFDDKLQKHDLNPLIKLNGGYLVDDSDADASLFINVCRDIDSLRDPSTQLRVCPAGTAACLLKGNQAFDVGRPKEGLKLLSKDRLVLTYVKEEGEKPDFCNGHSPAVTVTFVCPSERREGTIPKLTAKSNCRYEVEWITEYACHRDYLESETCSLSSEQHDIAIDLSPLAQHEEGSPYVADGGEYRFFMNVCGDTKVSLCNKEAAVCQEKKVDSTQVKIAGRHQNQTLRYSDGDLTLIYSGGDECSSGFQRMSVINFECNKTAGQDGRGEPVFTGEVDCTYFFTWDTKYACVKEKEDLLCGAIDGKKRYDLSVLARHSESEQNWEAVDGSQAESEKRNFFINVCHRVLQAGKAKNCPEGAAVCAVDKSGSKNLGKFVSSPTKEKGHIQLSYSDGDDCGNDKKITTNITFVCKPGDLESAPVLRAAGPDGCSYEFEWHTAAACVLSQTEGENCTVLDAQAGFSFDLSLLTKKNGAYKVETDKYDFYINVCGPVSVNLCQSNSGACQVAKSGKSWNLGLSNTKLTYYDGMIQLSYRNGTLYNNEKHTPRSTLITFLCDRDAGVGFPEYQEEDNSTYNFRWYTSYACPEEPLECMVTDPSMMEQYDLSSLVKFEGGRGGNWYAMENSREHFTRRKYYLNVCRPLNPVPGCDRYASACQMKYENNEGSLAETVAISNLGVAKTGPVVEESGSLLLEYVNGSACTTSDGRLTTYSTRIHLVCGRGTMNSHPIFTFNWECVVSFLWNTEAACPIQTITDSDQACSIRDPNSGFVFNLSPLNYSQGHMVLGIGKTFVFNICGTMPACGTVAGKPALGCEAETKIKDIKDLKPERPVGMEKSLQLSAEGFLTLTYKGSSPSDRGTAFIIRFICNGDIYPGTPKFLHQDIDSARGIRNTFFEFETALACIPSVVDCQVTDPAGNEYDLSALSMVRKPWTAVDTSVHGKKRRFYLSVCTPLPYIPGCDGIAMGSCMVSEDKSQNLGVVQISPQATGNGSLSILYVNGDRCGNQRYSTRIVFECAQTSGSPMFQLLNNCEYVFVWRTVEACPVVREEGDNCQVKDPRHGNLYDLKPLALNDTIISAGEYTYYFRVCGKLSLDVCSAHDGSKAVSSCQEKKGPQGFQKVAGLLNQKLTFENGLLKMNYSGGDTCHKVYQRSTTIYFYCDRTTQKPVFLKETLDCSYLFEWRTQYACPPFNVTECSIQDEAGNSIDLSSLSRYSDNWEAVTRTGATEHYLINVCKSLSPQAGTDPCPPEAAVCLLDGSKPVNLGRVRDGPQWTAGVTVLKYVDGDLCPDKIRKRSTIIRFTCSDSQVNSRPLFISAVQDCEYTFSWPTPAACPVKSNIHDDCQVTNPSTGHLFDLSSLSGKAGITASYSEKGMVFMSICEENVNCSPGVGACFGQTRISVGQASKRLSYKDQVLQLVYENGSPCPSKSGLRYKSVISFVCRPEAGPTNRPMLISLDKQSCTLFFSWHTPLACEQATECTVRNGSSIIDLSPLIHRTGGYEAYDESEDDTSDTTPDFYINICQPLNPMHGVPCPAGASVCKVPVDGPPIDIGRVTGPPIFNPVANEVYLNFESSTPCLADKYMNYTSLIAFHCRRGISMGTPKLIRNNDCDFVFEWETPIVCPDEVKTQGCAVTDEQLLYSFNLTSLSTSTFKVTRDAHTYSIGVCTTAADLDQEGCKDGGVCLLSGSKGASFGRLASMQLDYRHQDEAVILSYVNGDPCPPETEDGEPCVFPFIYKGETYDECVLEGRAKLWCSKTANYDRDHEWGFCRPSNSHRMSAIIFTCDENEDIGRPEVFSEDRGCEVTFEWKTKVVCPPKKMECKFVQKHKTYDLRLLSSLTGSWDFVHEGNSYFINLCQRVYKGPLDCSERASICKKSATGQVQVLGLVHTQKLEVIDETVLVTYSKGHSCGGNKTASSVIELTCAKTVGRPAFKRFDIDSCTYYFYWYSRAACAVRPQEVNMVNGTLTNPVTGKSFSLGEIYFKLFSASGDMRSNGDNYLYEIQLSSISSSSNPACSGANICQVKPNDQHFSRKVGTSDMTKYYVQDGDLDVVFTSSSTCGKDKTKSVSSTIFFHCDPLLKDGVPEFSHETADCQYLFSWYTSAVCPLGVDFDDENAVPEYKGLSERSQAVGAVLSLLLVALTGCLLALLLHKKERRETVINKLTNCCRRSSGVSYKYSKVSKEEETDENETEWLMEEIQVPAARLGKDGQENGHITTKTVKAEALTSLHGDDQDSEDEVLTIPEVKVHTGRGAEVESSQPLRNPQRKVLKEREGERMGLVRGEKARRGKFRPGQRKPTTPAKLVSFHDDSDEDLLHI
Chain of human mannose 6-phosphate/IGF-II receptor (P11717 41-2491): as the sequence (P11717 41-2491) above

Consider `O[C@H]1[C@H](O)[C@@H](O)CN2CC[C@H](O)[C@H]12` [CA, castanospermine], for which the activity at 520 µM in assay [1] (Cricetulus griseus, CHO, 6 h, read-out: level of secretion relative to control cells) lay within 5 to 15%. As to `CCN(CC)CCCC(C)Nc1ccnc2cc(Cl)ccc12` (stereo not drawn) [Chloroquine, Chloroquine diphosphate], the activity at 200 µM in assay [2] (Cricetulus griseus, CHO, 6 h chase, 10mM ammonium chloride, 200 µM chloroquine, 1 µM monensin, read-out: cleavage efficiency (proteolytic processing) relative to control values) was approximately 20%. Regarding `O=P(O)(O)OC1O[C@H](CO)[C@@H](O)[C@H](O)[C@@H]1O` (stereo partly drawn) [Mannose 1-phosphate, mannose 1-phosphate], in assay [3] (FIG. 37A), the “times less effective than man6P at inhibiting binding of the TGF-β1 precursor” value is reported as “at least 1,000 times”.

Take `O[C@H]1[C@H]2[C@H](O)CCCN2C[C@H]1O` [SW, swainsonine]: the activation at 230 µM in assay [1] (Cricetulus griseus, CHO, 6 h, read-out: increase in levels of secreted recombinant proteins) is approximately 30%. With `OC[C@H]1NC[C@@H](O)[C@@H](O)[C@@H]1O` [dMM, 1-deoxymannojirimycin], in assay [1] (Cricetulus griseus, CHO, 6 h chase, 0.23 mM SW, 4 mM dMM, read-out: increase in levels of secreted recombinant proteins), the activation at 4000 µM is approximately 30%. Take `OC[C@H]1NC[C@H](O)[C@@H](O)[C@@H]1O` [dN, 1-deoxynojirimycin]: the activity at 4000 µM in assay [1] (Cricetulus griseus, CHO, 6 h chase, 6 µM TU, 0.52 mM CA, 4 mM dN, read-out: level of secretion relative to control cells) lay in the range of 5 to 15%. `O=P(O)(O)OC[C@H]1OC(O)[C@@H](O)[C@@H](O)[C@@H]1O` (stereo partly drawn) [mannose 6-phosphate]: the inhibition at 50 µM in assay [4] (50µM competitor, read-out: inhibition of 125I-labeled TGF-β1 precursor binding to purified receptor) stood at 90%. Moreover, the IC50 stood at 8 µM in assay [4] (read-out: half-maximal inhibition of binding to the isolated receptor); 10 µM in assay [3] (FIG. 37A, read-out: half-maximal inhibition of TGF-β1 precursor binding to transfected CHO cells); 10 µM in assay [3] (read-out: half-maximal inhibition of rTGF-β1 precursor binding to transfected CHO cells). For the same compound, the inhibition at 3000 µM was determined as 65% in assay [5] (control adipocytes) and 81% in assay [5] (insulin-treated adipocytes).

In the case of `CC[C@@]1([C@@H]2O[C@@H]([C@H]3O[C@@](O)(CO)[C@H](C)C[C@@H]3C)C[C@@H]2C)CC[C@H]([C@]2(C)CC[C@]3(C[C@H](O)[C@@H](C)[C@@H]([C@@H](C)[C@@H](OC)[C@H](C)C(=O)O)O3)O2)O1` [monensin], the “cleavage efficiency (proteolytic processing) relative to control values” in assay [2] is approximately 20%. With ammonium chloride, in assay [2] (6 h chase, 10mM ammonium chloride, 200 µM chloroquine, 1 µM monensin), the “cleavage efficiency (proteolytic processing) relative to control values” was “about 70%”. tunicamycin: the “level of secretion relative to control cells” value in assay [1] (6 h chase, 6 µM TU, 0.52 mM CA, 4 mM dN) is 5-15%.
